According to the supplement of paper PMC10307832:

The cell lines below were run with CC1=C(N=C(N=C1N)[C@H](CC(=O)N)NC[C@@H](C(=O)N)N)C(=O)N[C@@H]([C@H](C2=CN=CN2)OC3C(C(C(C(O3)CO)O)O)OC4C(C(C(C(O4)CO)O)OC(=O)N)O)C(=O)N[C@H](C)[C@H]([C@H](C)C(=O)N[C@@H]([C@@H](C)O)C(=O)NCCC5=NC(=CS5)C6=NC(=CS6)C(=O)NCCC[S+](C)C)O [Bleomycin] + CC(=O)Nc1cccc(-n2c(=O)n(C3CC3)c(=O)c3c(Nc4ccc(I)cc4F)n(C)c(=O)c(C)c32)c1 [Trametinib] (partner 0.02 µM) (assay: relative viability (nuclei count vs DMSO), 5 days (fraction); higher = more cells survive). Settings: first compound 0.01 µM; main component drawn.
How it was run: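 Relative viability equals treated-well nuclei counts divided by vehicle-well nuclei counts. Counts came from 4× images of lung cancer cell lines grown in 1536-well plates for 5 days after pin-tool dosing on the day after seeding. Dosing used one drug alone or a fixed anchor-drug dose plus five library-drug doses (not always all listed) in √10 steps, and values are medians of duplicate plates.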
COR-L23 showed a relative viability of 0.432. COR-L 105 showed a relative viability of 0.459. With LOU-NH91 the relative viability was 0.669. ChaGo-K-1 was tested, and the relative viability was 0.775. NCI-H3122 gave a relative viability of 0.257. Cell Line HOP-62 has a relative viability of 0.34. HCC-44 gave a relative viability of 0.914. LU99A showed a relative viability of 0.485. Cell Line BEN has a relative viability of 1.03. HARA was tested, and the relative viability was 0.899. With HCC-78 the relative viability was 0.575. NCI-H441 showed a relative viability of 0.398. Work on LCLC-97TM1 yielded a relative viability of 0.169. NCI-H2009 was tested, and the relative viability was 0.296. With A-427 the relative viability was 0.607. With NCI-H460 the relative viability was 0.107. Work on NCI-H727 yielded a relative viability of 0.376. For NCI-H1734, the relative viability was 0.518. NCI-H520 gave a relative viability of 0.673. In the case of NCI-H2405, the relative viability is reported as 0.537. Work on SW 1573 yielded a relative viability of 0.47. For 201T, the relative viability was 0.697. Work on NCI-H1915 yielded a relative viability of 0.282. Work on HCC-827 yielded a relative viability of 0.495. Cell Line LXF-289 has a relative viability of 0.599. In the case of NCI-H2347, the relative viability is reported as 0.309. In the case of NCI-H650, the relative viability is reported as 0.909. NCI-H1651 gave a relative viability of 0.818. Work on EPLC-272H yielded a relative viability of 0.302.

Same assay, conditions: first compound 0.03162 µM; main component drawn
COR-L23 showed a relative viability of 0.518. COR-L 105 was tested, and the relative viability was 0.417. LOU-NH91 was tested, and the relative viability was 0.547. ChaGo-K-1 showed a relative viability of 0.744. NCI-H3122 was tested, and the relative viability was 0.247. With HOP-62 the relative viability was 0.278. HCC-44 was tested, and the relative viability was 0.924. LU99A was tested, and the relative viability was 0.485. BEN was tested, and the relative viability was 0.959. For HARA, the relative viability was 0.325. HCC-78 was tested, and the relative viability was 0.679. Work on NCI-H441 yielded a relative viability of 0.408. Work on LCLC-97TM1 yielded a relative viability of 0.195. Cell Line NCI-H2009 has a relative viability of 0.275. A-427 gave a relative viability of 0.558. Work on NCI-H460 yielded a relative viability of 0.0848. NCI-H727 gave a relative viability of 0.321. With NCI-H1734 the relative viability was 0.537. Cell Line NCI-H520 has a relative viability of 0.608. With NCI-H2405 the relative viability was 0.529. In the case of SW 1573, the relative viability is reported as 0.424. Cell Line 201T has a relative viability of 0.731. For NCI-H1915, the relative viability was 0.295. Work on LXF-289 yielded a relative viability of 0.664. In the case of NCI-H2347, the relative viability is reported as 0.254. NCI-H650 gave a relative viability of 0.993. In the case of NCI-H1651, the relative viability is reported as 0.712. Work on EPLC-272H yielded a relative viability of 0.256.

Same assay, conditions: first compound 0.1 µM; main component drawn
In the case of COR-L23, the relative viability is reported as 0.303. Cell Line COR-L 105 has a relative viability of 0.419. Work on LOU-NH91 yielded a relative viability of 0.484. Work on ChaGo-K-1 yielded a relative viability of 0.704. Work on NCI-H3122 yielded a relative viability of 0.231. For HOP-62, the relative viability was 0.264. For HCC-44, the relative viability was 0.827. With LU99A the relative viability was 0.438. Work on BEN yielded a relative viability of 1.05. For HARA, the relative viability was 0.448. With HCC-78 the relative viability was 0.651. NCI-H441 showed a relative viability of 0.431. LCLC-97TM1 gave a relative viability of 0.16. In the case of NCI-H2009, the relative viability is reported as 0.276. In the case of A-427, the relative viability is reported as 0.417. NCI-H460 was tested, and the relative viability was 0.0692. NCI-H727 showed a relative viability of 0.392. NCI-H1734 showed a relative viability of 0.397. NCI-H520 gave a relative viability of 0.814. NCI-H2405 showed a relative viability of 0.578. SW 1573 showed a relative viability of 0.322. In the case of 201T, the relative viability is reported as 0.673. NCI-H1915 was tested, and the relative viability was 0.215. For HCC-827, the relative viability was 0.502. For LXF-289, the relative viability was 0.634. NCI-H2347 gave a relative viability of 0.29. For NCI-H650, the relative viability was 0.8. NCI-H1651 gave a relative viability of 0.714. EPLC-272H showed a relative viability of 0.207.

Same assay, conditions: first compound 0.3162 µM; main component drawn
With COR-L23 the relative viability was 0.133. In the case of COR-L 105, the relative viability is reported as 0.369. Work on LOU-NH91 yielded a relative viability of 0.409. For ChaGo-K-1, the relative viability was 0.547. NCI-H3122 was tested, and the relative viability was 0.185. In the case of HOP-62, the relative viability is reported as 0.203. HCC-44 showed a relative viability of 0.369. Cell Line LU99A has a relative viability of 0.22. With BEN the relative viability was 0.863. Cell Line HARA has a relative viability of 0.347. Work on HCC-78 yielded a relative viability of 0.632. NCI-H441 showed a relative viability of 0.298. LCLC-97TM1 showed a relative viability of 0.169. In the case of NCI-H2009, the relative viability is reported as 0.258. Work on A-427 yielded a relative viability of 0.261. NCI-H460 showed a relative viability of 0.0357. For NCI-H727, the relative viability was 0.404. In the case of NCI-H1734, the relative viability is reported as 0.263. Cell Line NCI-H520 has a relative viability of 0.547. With NCI-H2405 the relative viability was 0.444. Cell Line SW 1573 has a relative viability of 0.191. For 201T, the relative viability was 0.598. Cell Line NCI-H1915 has a relative viability of 0.165. With HCC-827 the relative viability was 0.273. For LXF-289, the relative viability was 0.459. For NCI-H2347, the relative viability was 0.279. NCI-H650 gave a relative viability of 0.352. NCI-H1651 showed a relative viability of 0.368. Cell Line EPLC-272H has a relative viability of 0.193.

Same assay, conditions: first compound 1 µM; main component drawn
COR-L23 showed a relative viability of 0.129. In the case of COR-L 105, the relative viability is reported as 0.332. LOU-NH91 showed a relative viability of 0.357. ChaGo-K-1 was tested, and the relative viability was 0.366. NCI-H3122 showed a relative viability of 0.187. For HOP-62, the relative viability was 0.159. Cell Line HCC-44 has a relative viability of 0.388. LU99A gave a relative viability of 0.173. BEN gave a relative viability of 0.849. Cell Line HARA has a relative viability of 0.328. HCC-78 showed a relative viability of 0.593. NCI-H441 gave a relative viability of 0.357. LCLC-97TM1 was tested, and the relative viability was 0.106. In the case of NCI-H2009, the relative viability is reported as 0.224. For A-427, the relative viability was 0.212. NCI-H460 was tested, and the relative viability was 0.0155. NCI-H727 gave a relative viability of 0.406. Cell Line NCI-H1734 has a relative viability of 0.163. NCI-H520 was tested, and the relative viability was 0.394. In the case of NCI-H2405, the relative viability is reported as 0.313. Cell Line SW 1573 has a relative viability of 0.141. With 201T the relative viability was 0.555. Cell Line NCI-H1915 has a relative viability of 0.128. For HCC-827, the relative viability was 0.209. Cell Line LXF-289 has a relative viability of 0.2. NCI-H2347 gave a relative viability of 0.226. NCI-H650 was tested, and the relative viability was 0.18. For NCI-H1651, the relative viability was 0.223. EPLC-272H was tested, and the relative viability was 0.184.
